Laboratory results: US9187472B2 (AbbVie Inc., priority 2012, dated 2015)
pIC50: −log10 of the molar value.

What was measured:
PC3 cells = experiment: NAMPT Cell Proliferation Assay; format: cell-based; settings: Homo sapiens, PC-3, 120 h, 5 days incubation, cell viability by Cell Titer Glo
Procedure, shortened: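 Seed PC3 at 500 cells/well (RPMI, 10% HI-FBS), attach overnight; add compound, 10-fold series 10 μM → 1×10^−5 μM; incubate 5 d, 37° C/5% CO2; luminescent viability readout; fit % inhibition sigmoidally for IC50.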

NAMPT = NAMPT (Homo sapiens, UniProt P43490); experiment: TR-FRET Binding Assay of NAMPT with PRPP; settings: with 200 μM PRPP and 2.5 mM ATP; 2 nM NAMPT, 2 nM probe, 16 hours equilibration
Sequence of NAMPT (P43490 whole entry): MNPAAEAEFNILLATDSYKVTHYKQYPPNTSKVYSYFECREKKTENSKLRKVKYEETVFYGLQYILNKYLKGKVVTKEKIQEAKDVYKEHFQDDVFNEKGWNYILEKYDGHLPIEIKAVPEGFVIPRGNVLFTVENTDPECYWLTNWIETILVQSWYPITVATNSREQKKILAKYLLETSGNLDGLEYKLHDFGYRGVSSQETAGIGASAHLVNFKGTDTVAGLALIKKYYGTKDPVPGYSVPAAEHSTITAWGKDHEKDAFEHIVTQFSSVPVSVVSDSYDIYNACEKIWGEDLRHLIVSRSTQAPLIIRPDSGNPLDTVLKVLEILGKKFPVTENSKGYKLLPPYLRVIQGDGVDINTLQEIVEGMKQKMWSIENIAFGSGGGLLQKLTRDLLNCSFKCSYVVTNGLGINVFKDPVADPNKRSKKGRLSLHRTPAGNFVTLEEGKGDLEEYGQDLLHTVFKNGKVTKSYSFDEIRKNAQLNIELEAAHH
Procedure, shortened: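 NAMPT 2 nM + probe 2 nM + Tb-anti-His Ab 1 nM; PRPP 200 μM, ATP 2.5 mM, DMSO 2%; 16 h equilibration before TR-FRET read.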

[1] = target: NAMPT (human, recombinant, C-terminally His-tagged) (Homo sapiens, UniProt P43490); experiment: Time-Resolved Fluorescence Resonance Energy Transfer (TR-FRET) Binding Assay of NAMPT; settings: without substrates; 6.8 nM NAMPT, 200 nM probe, 3 hours equilibration
Sequence of NAMPT (human, recombinant, C-terminally His-tagged) (P43490 whole entry): as above
Procedure, shortened: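 Read-out is the time-resolved FRET ratio Em520/Em495 (excitation 337 nm) between a terbium anti-His antibody (1 nM) on the enzyme and an Oregon Green 488-labelled nicotinamide-competitive inhibitor probe (200 nM). Enzyme was 6.8 nM, DMSO 2%, pH 7.5 HEPES buffer; 3 h room-temperature equilibration preceded reading.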

Compound	pIC50 (PC3 cells)	pIC50 (NAMPT)	pIC50 [1]
O=C(NCc1ccn2ccnc2c1)c1ccc(C2CCN(S(=O)(=O)c3ccccc3)CC2)cc1 [Example 682, N-(imidazo[1,2-a]pyridin-7-ylmethyl)-4-[1-(phenylsulfonyl)piperidin-4-yl]benzamide]	6.11	8.80	6.22
CC(C)S(=O)(=O)N1CCC(c2ccc(C(=O)NCc3ccn4ccnc4c3)cc2)CC1 [Example 683, N-(imidazo[1,2-a]pyridin-7-ylmethyl)-4-[1-(propan-2-ylsulfonyl)piperidin-4-yl]benzamide]	7.44	8.92	6.81
O=C(NCc1ccn2ccnc2c1)c1ccc(C2CCN(S(=O)(=O)C3CC3)CC2)cc1 [Example 684, 4-[1-(cyclopropylsulfonyl)piperidin-4-yl]-N-(imidazo[1,2-a]pyridin-7-ylmethyl)benzamide]	6.49	8.87	6.32
CC(C)C[C@@H](NC(=O)C1CC1)c1ccc(C(=O)NCc2ccn3ccnc3c2)s1 [Example 685, 5-{(1R)-1-[(cyclopropylcarbonyl)amino]-3-methylbutyl}-N-(imidazo[1,2-a]pyridin-7-ylmethyl)thiophene-2-carboxamide]	7.13	8.87	5.90
CC(C)C[C@@H](NC(=O)CC1CCOC1)c1ccc(C(=O)NCc2ccn3ccnc3c2)s1 (stereo partly drawn) [Example 686, N-(imidazo[1,2-a]pyridin-7-ylmethyl)-5-{(1R)-3-methyl-1-[(tetrahydrofuran-3-ylacetyl)amino]butyl}thiophene-2-carboxamide]	7.11	8.89	6.02
CC(C)C[C@H](NC(=O)C1CC1)c1ccc(C(=O)NCc2ccn3ccnc3c2)s1 [Example 687, 5-{(1S)-1-[(cyclopropylcarbonyl)amino]-3-methylbutyl}-N-(imidazo[1,2-a]pyridin-7-ylmethyl)thiophene-2-carboxamide]	8.66	8.94	7.01
O=C(NCc1ccn2ccnc2c1)c1cnc(C2CCN(c3ccccc3)CC2)s1 [Example 688, N-(imidazo[1,2-a]pyridin-7-ylmethyl)-2-(1-phenylpiperidin-4-yl)-1,3-thiazole-5-carboxamide]	5.26	8.58	5.95
O=C(NCc1ccn2ccnc2c1)Nc1ccc(O[C@@H]2CCN(C(=O)c3ccccc3F)C2)cc1 [Example 689, 1-(4-{[(3R)-1-(2-fluorobenzoyl)pyrrolidin-3-yl]oxy}phenyl)-3-(imidazo[1,2-a]pyridin-7-ylmethyl)urea]	8.14	8.88	7.80
O=C(NCc1ccn2ccnc2c1)Nc1ccc(O[C@@H]2CCN(C(=O)c3cccc(F)c3)C2)cc1 [Example 690, 1-(4-{[(3R)-1-(3-fluorobenzoyl)pyrrolidin-3-yl]oxy}phenyl)-3-(imidazo[1,2-a]pyridin-7-ylmethyl)urea]	7.86	8.91	7.19
O=C(NCc1ccn2ccnc2c1)Nc1ccc(O[C@@H]2CCN(C(=O)c3ccc(F)cc3)C2)cc1 [Example 691, 1-(4-{[(3R)-1-(4-fluorobenzoyl)pyrrolidin-3-yl]oxy}phenyl)-3-(imidazo[1,2-a]pyridin-7-ylmethyl)urea]	7.11	9.17	6.77
O=C(NCc1ccn2ccnc2c1)Nc1ccc(O[C@@H]2CCN(C(=O)c3ccc(F)cc3F)C2)cc1 [Example 692, 1-(4-{[(3R)-1-(2,4-difluorobenzoyl)pyrrolidin-3-yl]oxy}phenyl)-3-(imidazo[1,2-a]pyridin-7-ylmethyl)urea]	7.70	8.92	7.08
O=C(NCc1ccn2ccnc2c1)Nc1ccc(O[C@@H]2CCN(C(=O)c3ccc(C(F)(F)F)cc3)C2)cc1 [Example 693, 1-(imidazo[1,2-a]pyridin-7-ylmethyl)-3-[4-({(3R)-1-[4-(trifluoromethyl)benzoyl]pyrrolidin-3-yl}oxy)phenyl]urea]	6.19	8.85	6.11
